Reference: ChEMBL document CHEMBL3132769, “Fragment growing to retain or alter the selectivity of anchored kinase hinge-binding fragments” (Medchemcomm, 2014)

Experiments:
[1] = target: T1, Testis-specific serine/threonine-protein kinase 2 (Homo sapiens) (UniProt Q96PF2); test: Inhibition of human full length TSSK2 expressed in baculovirus assessed as substrate phosphorylation using fluorescence-labelled peptides as substrate at 0.06 uM after 90 mins by microfluidic peptide phosphorylation assay
T1 sequence (whole entry): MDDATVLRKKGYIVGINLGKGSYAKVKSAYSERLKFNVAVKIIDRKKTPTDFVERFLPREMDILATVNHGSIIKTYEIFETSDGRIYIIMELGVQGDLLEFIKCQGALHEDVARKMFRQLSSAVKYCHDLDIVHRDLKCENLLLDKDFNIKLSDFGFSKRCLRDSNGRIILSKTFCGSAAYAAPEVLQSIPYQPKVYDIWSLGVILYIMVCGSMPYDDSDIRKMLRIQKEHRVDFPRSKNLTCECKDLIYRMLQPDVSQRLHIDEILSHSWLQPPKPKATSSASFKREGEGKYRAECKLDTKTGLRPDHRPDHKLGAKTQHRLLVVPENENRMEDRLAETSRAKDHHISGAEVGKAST

[2] = target: Mitogen-activated protein kinase kinase kinase kinase 4 (Homo sapiens) (UniProt O95819); test: Inhibition of human HGK catalytic domain expressed in baculovirus assessed as substrate phosphorylation using fluorescence-labelled peptides as substrate at 420 uM after 90 mins by microfluidic peptide phosphorylation assay
[3] = target: Glycogen synthase kinase-3 beta (Homo sapiens) (UniProt P49841); test: Inhibition of human full length GSK-3 beta expressed in baculovirus assessed as substrate phosphorylation using fluorescence-labelled peptides as substrate at 420 uM after 90 mins by microfluidic peptide phosphorylation assay
[4] = target: Mitogen-activated protein kinase 1 (Homo sapiens) (UniProt P28482); test: Inhibition of human full length ERK2 expressed in Escherichia coli cell assessed as substrate phosphorylation using fluorescence-labelled peptides as substrate at 420 uM after 90 mins by microfluidic peptide phosphorylation assay
[5] = tested on: Fibroblast growth factor receptor 2 (Homo sapiens), P21802 [N549H]; test: Inhibition of human FGFR2 N549H mutant catalytic domain expressed in baculovirus assessed as substrate phosphorylation using fluorescence-labelled peptides as substrate at […] after 90 mins by microfluidic peptide phosphorylation assay
[6] = target: T2, Calcium/calmodulin-dependent protein kinase type IV (Homo sapiens) (UniProt Q16566); test: Inhibition of human full length CAMK4 expressed in baculovirus assessed as substrate phosphorylation using fluorescence-labelled peptides as substrate at […] after 90 mins by microfluidic peptide phosphorylation assay
T2 sequence (whole entry): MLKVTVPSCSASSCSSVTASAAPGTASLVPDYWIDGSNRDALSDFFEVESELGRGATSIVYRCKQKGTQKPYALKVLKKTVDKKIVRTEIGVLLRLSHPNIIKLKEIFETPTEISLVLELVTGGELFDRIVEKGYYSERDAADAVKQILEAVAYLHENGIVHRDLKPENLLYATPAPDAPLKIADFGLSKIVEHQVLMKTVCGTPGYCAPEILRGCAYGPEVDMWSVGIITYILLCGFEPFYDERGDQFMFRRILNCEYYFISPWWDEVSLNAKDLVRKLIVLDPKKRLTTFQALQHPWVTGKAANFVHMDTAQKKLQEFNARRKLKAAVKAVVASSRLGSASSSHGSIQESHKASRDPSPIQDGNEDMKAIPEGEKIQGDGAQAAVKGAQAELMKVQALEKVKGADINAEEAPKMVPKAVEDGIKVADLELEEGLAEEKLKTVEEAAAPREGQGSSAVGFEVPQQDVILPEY

[7] = target: T3, Serine/threonine-protein kinase D3 (Homo sapiens) (UniProt O94806); settings: 0.1 uM
T3 sequence (whole entry): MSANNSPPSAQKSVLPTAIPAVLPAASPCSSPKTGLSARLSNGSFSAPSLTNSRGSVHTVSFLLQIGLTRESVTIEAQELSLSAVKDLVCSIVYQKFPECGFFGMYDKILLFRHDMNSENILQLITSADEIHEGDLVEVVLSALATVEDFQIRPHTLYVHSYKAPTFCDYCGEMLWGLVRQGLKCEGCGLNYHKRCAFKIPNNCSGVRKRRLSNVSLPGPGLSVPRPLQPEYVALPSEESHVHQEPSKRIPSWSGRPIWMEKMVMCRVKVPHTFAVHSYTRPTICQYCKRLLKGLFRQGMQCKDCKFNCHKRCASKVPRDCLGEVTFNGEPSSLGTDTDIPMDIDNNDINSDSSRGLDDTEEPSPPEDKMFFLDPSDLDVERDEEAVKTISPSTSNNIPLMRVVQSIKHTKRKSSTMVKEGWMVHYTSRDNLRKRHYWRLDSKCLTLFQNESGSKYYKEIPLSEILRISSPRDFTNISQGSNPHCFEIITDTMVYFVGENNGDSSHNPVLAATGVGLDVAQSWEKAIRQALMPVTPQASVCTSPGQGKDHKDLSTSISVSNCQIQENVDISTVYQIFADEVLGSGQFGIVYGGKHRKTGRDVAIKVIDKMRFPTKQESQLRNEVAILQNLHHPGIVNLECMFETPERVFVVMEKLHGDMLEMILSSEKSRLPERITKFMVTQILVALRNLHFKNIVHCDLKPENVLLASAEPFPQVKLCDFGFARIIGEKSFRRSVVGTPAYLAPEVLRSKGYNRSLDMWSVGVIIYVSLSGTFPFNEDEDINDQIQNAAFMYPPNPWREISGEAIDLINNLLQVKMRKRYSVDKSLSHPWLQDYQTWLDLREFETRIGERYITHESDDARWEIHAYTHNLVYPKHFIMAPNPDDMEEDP
Description: Inhibition of human full length PKD3 expressed in baculovirus assessed as substrate phosphorylation using fluorescence-labelled peptides as substrate at 0.1 uM after 90 mins by microfluidic peptide phosphorylation assay

[8] = target: T4, Mitogen-activated protein kinase 12 (Homo sapiens) (UniProt P53778); test: Inhibition of human full length p38 gamma expressed in Escherichia coli cell assessed as substrate phosphorylation using fluorescence-labelled peptides as substrate at 2 uM after 90 mins by microfluidic peptide phosphorylation assay
T4 sequence (whole entry): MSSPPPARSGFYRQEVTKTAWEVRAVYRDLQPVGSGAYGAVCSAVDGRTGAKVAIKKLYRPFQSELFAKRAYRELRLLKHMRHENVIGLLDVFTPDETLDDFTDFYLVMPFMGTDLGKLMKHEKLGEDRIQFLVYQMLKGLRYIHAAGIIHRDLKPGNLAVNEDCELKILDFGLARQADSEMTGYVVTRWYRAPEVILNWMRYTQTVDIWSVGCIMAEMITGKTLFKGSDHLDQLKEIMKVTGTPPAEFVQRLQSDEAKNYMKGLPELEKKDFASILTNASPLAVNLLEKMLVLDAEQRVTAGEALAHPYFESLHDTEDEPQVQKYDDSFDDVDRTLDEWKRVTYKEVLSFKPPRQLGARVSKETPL

Mitogen-activated protein kinase kinase kinase kinase 4 (Homo sapiens), sequence (O95819 2-1239 limits assumed): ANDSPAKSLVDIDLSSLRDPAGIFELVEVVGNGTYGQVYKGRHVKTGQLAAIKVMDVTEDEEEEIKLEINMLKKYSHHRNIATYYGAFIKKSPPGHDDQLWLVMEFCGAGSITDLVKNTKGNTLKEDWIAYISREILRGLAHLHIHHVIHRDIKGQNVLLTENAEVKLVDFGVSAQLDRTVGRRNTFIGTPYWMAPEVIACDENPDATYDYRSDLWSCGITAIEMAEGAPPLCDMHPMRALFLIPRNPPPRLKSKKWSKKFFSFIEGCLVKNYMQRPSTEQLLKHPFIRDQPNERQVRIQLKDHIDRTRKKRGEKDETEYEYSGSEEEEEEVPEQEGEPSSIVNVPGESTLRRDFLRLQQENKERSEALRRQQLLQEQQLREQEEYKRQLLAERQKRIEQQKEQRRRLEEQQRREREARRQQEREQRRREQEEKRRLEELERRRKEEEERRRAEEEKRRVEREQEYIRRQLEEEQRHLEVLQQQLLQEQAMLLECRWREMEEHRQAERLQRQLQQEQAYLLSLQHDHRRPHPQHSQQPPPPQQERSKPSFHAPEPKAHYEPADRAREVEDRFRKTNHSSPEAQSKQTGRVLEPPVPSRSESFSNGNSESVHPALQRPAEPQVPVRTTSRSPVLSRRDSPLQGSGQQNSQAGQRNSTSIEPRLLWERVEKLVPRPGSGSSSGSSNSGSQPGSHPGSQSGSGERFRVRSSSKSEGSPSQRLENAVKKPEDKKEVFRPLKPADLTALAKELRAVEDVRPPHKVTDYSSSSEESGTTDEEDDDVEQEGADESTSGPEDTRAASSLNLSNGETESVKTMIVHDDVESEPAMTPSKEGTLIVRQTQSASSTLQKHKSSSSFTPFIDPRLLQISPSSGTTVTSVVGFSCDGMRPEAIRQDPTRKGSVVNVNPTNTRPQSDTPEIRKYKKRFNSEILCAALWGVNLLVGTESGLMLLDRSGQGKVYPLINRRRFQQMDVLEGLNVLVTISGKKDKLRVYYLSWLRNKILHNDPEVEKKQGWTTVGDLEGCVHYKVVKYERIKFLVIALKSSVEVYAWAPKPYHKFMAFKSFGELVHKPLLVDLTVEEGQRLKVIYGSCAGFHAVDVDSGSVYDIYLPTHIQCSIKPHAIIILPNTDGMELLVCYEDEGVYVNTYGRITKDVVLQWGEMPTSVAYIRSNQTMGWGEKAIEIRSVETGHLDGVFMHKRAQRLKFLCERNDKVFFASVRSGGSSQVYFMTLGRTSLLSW
Glycogen synthase kinase-3 beta (Homo sapiens), sequence (P49841 whole entry, looked up): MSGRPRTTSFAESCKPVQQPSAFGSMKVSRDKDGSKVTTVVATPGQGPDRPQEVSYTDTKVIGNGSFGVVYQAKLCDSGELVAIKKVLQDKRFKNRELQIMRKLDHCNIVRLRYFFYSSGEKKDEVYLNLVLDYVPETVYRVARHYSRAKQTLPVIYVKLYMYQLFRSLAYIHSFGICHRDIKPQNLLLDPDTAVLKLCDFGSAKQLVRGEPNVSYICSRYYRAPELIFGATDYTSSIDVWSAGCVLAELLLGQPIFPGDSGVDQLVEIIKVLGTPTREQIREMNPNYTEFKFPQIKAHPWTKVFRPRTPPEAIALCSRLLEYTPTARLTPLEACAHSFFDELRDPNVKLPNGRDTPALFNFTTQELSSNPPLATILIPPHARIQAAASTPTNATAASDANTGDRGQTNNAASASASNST
Fibroblast growth factor receptor 2 (Homo sapiens), P21802 [N549H], sequence (P21802 whole entry N549H, the tested form may be a part): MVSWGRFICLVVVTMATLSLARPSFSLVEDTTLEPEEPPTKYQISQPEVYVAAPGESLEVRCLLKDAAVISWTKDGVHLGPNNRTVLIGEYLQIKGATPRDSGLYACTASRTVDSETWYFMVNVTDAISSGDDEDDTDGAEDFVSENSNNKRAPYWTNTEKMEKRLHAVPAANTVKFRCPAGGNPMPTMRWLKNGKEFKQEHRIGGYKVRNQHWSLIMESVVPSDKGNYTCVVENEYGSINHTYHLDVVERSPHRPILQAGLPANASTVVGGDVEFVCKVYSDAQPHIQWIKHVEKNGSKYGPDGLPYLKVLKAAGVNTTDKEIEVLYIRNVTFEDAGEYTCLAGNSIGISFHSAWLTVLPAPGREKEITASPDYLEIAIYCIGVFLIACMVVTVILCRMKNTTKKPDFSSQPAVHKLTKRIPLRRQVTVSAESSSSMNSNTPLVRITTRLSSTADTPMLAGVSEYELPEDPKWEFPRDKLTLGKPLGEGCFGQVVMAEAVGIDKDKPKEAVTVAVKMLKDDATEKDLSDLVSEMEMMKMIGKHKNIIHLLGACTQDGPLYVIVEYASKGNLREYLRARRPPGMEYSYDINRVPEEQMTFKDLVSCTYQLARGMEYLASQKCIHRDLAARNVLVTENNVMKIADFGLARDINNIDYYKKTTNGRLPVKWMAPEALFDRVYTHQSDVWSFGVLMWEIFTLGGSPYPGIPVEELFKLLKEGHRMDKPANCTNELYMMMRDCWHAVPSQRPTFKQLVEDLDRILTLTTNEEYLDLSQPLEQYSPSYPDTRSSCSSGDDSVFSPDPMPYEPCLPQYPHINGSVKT
Mitogen-activated protein kinase 1 (Homo sapiens), sequence (P28482 whole entry, the tested form may be a part): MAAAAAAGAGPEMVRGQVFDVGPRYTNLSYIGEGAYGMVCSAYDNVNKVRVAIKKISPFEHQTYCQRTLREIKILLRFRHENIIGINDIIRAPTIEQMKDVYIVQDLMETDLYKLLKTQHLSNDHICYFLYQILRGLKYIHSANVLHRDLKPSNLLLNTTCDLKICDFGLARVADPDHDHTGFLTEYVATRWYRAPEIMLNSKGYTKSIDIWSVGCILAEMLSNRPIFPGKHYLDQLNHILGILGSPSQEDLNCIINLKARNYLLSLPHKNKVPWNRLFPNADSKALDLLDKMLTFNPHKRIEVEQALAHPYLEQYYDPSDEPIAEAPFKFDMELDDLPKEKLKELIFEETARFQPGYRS

In the case of `NC1(Cc2ccc(Cl)cc2)CCN(c2ncnc3[nH]ccc23)CC1`, the inhibition [1] is reported as 3%.
In the case of `c1nc(N2CCOCC2)c2nc[nH]c2n1`, the inhibition [2] is reported as 78.5%, the inhibition [3] is reported as 90% and the inhibition [4] is reported as 68%.
Compound `COC(=O)c1cnc(Nc2cnc(C#N)cn2)cc1NCC1CCNCC1` has an inhibition [5] of 6.5% and an inhibition [6] of 0.5%.
Work on `C[C@H](CN(C)C)Oc1nc(Nc2cc3cccc(Cl)c3cn2)cnc1C#N` yielded an inhibition [7] of 0%.
For `NC1CCN(c2ncnc3[nH]ccc23)CC1`, the inhibition [8] was 1.5%.
